ChEMBL document CHEMBL1201862, “PubChem BioAssay data set” (2004)
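Each compound was tested at five concentrations against cells in 96-well plates for 48 hours. GI50: concentration for 50% inhibition of growth.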 Activity calls are given as the source filed them. Rule as the data show it: active = GI50 up to about 1.1 µM and inactive = higher.

How the values were obtained:
Assay in all cases: NCI anticancer screen, dose series, 48 h
Hs-578T = test system: Hs-578T
OVCAR-3 = test system: OVCAR-3
T47D = test system: T47D
SNB-75 = test system: SNB-75
DU-145 = test system: DU-145
NCI/ADR-RES = test system: NCI/ADR-RES
HL-60 = test system: HL-60
MDA-MB-231 = test system: MDA-MB-231
CAKI-1 = test system: CAKI-1
SN12C = test system: SN12C
ACHN = test system: ACHN
SNB-19 = test system: SNB-19
U-251 = test system: U-251
MDA-MB-435 = test system: MDA-MB-435
TK-10 = test system: TK-10
HCC 2998 = test system: HCC 2998
UO-31 = test system: UO-31
SK-MEL-5 = test system: SK-MEL-5
CCRF-CEM = test system: CCRF-CEM
SW-620 = test system: SW-620
RXF 393 = test system: RXF 393
LOX IMVI = test system: LOX IMVI
MOLT-4 = test system: MOLT-4
SK-MEL-28 = test system: SK-MEL-28
MDA-N = test system: MDA-N
SK-MEL-2 = test system: SK-MEL-2
HOP-62 = test system: HOP-62
NCI-H23 = test system: NCI-H23
OVCAR-8 = test system: OVCAR-8
HCT-15 = test system: HCT-15
SF-295 = test system: SF-295
SF-539 = test system: SF-539
KM12 = test system: KM12
SK-OV-3 = test system: SK-OV-3
OVCAR-4 = test system: OVCAR-4
A549 = test system: A549
EKVX = test system: EKVX
786-0 = test system: 786-0
NCI-H522 = test system: NCI-H522
PC-3 = test system: PC-3
HCT-116 = test system: HCT-116
SF-268 = test system: SF-268
OVCAR-5 = test system: OVCAR-5
IGROV-1 = test system: IGROV-1
K562 = test system: K562
HT-29 = test system: HT-29
Malme-3M = test system: Malme-3M
COLO 205 = test system: COLO 205
M14 = test system: M14
MCF7 = test system: MCF7
UACC-257 = test system: UACC-257
RPMI-8226 = test system: RPMI-8226
HOP-92 = test system: HOP-92
NCI-H460 = test system: NCI-H460
A498 = test system: A498
NCI-H226 = test system: NCI-H226
SR = test system: SR
UACC-62 = test system: UACC-62

COC(=O)c1ccc2c(c1)CC1(C2)Cc2cc3c(cc2C1=O)CCC3 (stereo not drawn)
GI50 (Hs-578T): 77.4 µM (inactive)
GI50 (OVCAR-3): 26.7 µM (inactive)
GI50 (T47D): 42.5 µM (inactive)
GI50 (SNB-75): 21.6 µM (inactive)
GI50 (DU-145): 57.7 µM (inactive)
GI50 (NCI/ADR-RES): 22 µM (inactive)
GI50 (HL-60): 16.8 µM (inactive)
GI50 (MDA-MB-231): 36.4 µM (inactive)
GI50 (CAKI-1): 14.6 µM (inactive)
GI50 (SN12C): 22 µM (inactive)
GI50 (ACHN): 34.9 µM (inactive)
GI50 (SNB-19): > 100 µM (inactive)
GI50 (U-251): 33.7 µM (inactive)
GI50 (MDA-MB-435): 23.8 µM (inactive)
GI50 (TK-10): 54.1 µM (inactive)
GI50 (HCC 2998): 40.3 µM (inactive)
GI50 (UO-31): 38.7 µM (inactive)
GI50 (SK-MEL-5): 9.18 µM (inactive)
GI50 (CCRF-CEM): 15 µM (inactive)
GI50 (SW-620): 60.4 µM (inactive)
GI50 (RXF 393): 30.1 µM (inactive)
GI50 (LOX IMVI): 24.3 µM (inactive)
GI50 (MOLT-4): 10.9 µM (inactive)
GI50 (SK-MEL-28): 46.1 µM (inactive)
GI50 (MDA-N): 21.1 µM (inactive)
GI50 (SK-MEL-2): 38.8 µM (inactive)
GI50 (HOP-62): 46.5 µM (inactive)
GI50 (NCI-H23): 43.6 µM (inactive)
GI50 (OVCAR-8): 31.6 µM (inactive)
GI50 (HCT-15): 34.9 µM
GI50 (SF-295): 56.5 µM (inactive)
GI50 (SF-539): > 100 µM (inactive)
GI50 (KM12): 9.46 µM (inactive)
GI50 (SK-OV-3): 98.6 µM (inactive)
GI50 (OVCAR-4): 24.7 µM (inactive)
GI50 (A549): 36.7 µM (inactive)
GI50 (EKVX): 61.2 µM (inactive)
GI50 (786-0): 53 µM (inactive)
GI50 (NCI-H522): 39.6 µM (inactive)
GI50 (PC-3): 39.4 µM (inactive)
GI50 (HCT-116): 29.6 µM (inactive)
GI50 (SF-268): 79.6 µM (inactive)
GI50 (OVCAR-5): 84.1 µM (inactive)
GI50 (IGROV-1): 44.1 µM (inactive)
GI50 (K562): 17.5 µM (inactive)
GI50 (HT-29): 15.4 µM (inactive)
GI50 (Malme-3M): 27.4 µM (inactive)
GI50 (COLO 205): 14.8 µM (inactive)
GI50 (M14): 19.2 µM (inactive)
GI50 (MCF7): 20.9 µM (inactive)
GI50 (UACC-257): 18.3 µM (inactive)
GI50 (RPMI-8226): 13.2 µM (inactive)
GI50 (HOP-92): 28.2 µM (inactive)
GI50 (NCI-H460): 37.2 µM (inactive)
GI50 (A498): 64.3 µM (inactive)

O=C1[C@H](O)[C@@H]2CCC[C@@]23CCCN13
GI50 (Hs-578T): > 100 µM (inactive)
GI50 (NCI-H226): > 100 µM (inactive)
GI50 (OVCAR-3): > 100 µM (inactive)
GI50 (T47D): > 100 µM (inactive)
GI50 (SNB-75): > 100 µM (inactive)
GI50 (DU-145): > 100 µM (inactive)
GI50 (SR): > 100 µM (inactive)
GI50 (NCI/ADR-RES): > 100 µM (inactive)
GI50 (HL-60): > 100 µM (inactive)
GI50 (CAKI-1): > 100 µM (inactive)
GI50 (SN12C): > 100 µM (inactive)
GI50 (ACHN): > 100 µM (inactive)
GI50 (U-251): > 100 µM (inactive)
GI50 (MDA-MB-435): > 100 µM (inactive)
GI50 (TK-10): > 100 µM (inactive)
GI50 (HCC 2998): > 100 µM (inactive)
GI50 (UO-31): > 100 µM (inactive)
GI50 (SK-MEL-5): > 100 µM (inactive)
GI50 (CCRF-CEM): 94.4 µM (inactive)
GI50 (SW-620): > 100 µM (inactive)
GI50 (RXF 393): > 100 µM (inactive)
GI50 (LOX IMVI): > 100 µM (inactive)
GI50 (MOLT-4): > 100 µM (inactive)
GI50 (MDA-N): > 100 µM (inactive)
GI50 (HOP-62): > 100 µM (inactive)
GI50 (NCI-H23): > 100 µM (inactive)
GI50 (OVCAR-8): > 100 µM (inactive)
GI50 (HCT-15): > 100 µM
GI50 (SF-295): > 100 µM (inactive)
GI50 (SF-539): > 100 µM (inactive)
GI50 (KM12): > 100 µM (inactive)
GI50 (SK-OV-3): > 100 µM (inactive)
GI50 (A549): > 100 µM (inactive)
GI50 (EKVX): > 100 µM (inactive)
GI50 (786-0): > 100 µM (inactive)
GI50 (NCI-H522): > 100 µM (inactive)
GI50 (HCT-116): > 100 µM (inactive)
GI50 (SF-268): > 100 µM (inactive)
GI50 (OVCAR-5): > 100 µM (inactive)
GI50 (UACC-62): > 100 µM (inactive)
GI50 (IGROV-1): > 100 µM (inactive)
GI50 (K562): > 100 µM (inactive)
GI50 (HT-29): > 100 µM (inactive)
GI50 (COLO 205): > 100 µM (inactive)
GI50 (M14): > 100 µM (inactive)
GI50 (MCF7): > 100 µM (inactive)
GI50 (UACC-257): > 100 µM (inactive)
GI50 (RPMI-8226): > 100 µM (inactive)
GI50 (HOP-92): > 100 µM (inactive)
GI50 (NCI-H460): > 100 µM (inactive)
GI50 (A498): > 100 µM (inactive)

CN(C)CC1CCCCCCCCCCC1=O (stereo not drawn)
GI50 (Hs-578T): 66.4 µM (inactive)
GI50 (SNB-75): > 100 µM (inactive)
GI50 (SK-MEL-5): > 100 µM (inactive)
GI50 (SK-MEL-28): > 100 µM (inactive)
GI50 (SK-OV-3): 86.7 µM (inactive)
GI50 (UACC-62): > 100 µM (inactive)
GI50 (IGROV-1): > 100 µM (inactive)
